Source: the supplement of paper PMC10307832

How the values were obtained:
Assay in all cases: relative viability (nuclei count vs DMSO), 5 days (fraction); higher = more cells survive
NCI-H520 = system: NCI-H520
Method in brief: (§1)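 A single step with final 0.05% Triton X-100, 1% formaldehyde and 1 ug/ml Hoechst fixed the cells and stained nuclei 5 days after treatment. Lung cancer cell lines in 1536-well plates had been treated by pin tool the day after seeding with one drug alone or a fixed anchor-drug dose plus five library-drug doses (not always all listed) in √10 steps, and nuclei were counted on 4× images. Relative viability is the ratio of nuclei in treated wells to nuclei in vehicle wells, taken as the median of duplicate plates.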

NCI-H1623 = system: NCI-H1623
Method in brief: as §1

A549 = system: A549
Method in brief: as §1

NCI-H1648 = system: NCI-H1648
Method in brief: as §1

| SMILES | relative viability (NCI-H520; first compound 0.01 µM) | relative viability (NCI-H520; first compound 0.03162 µM) | relative viability (NCI-H520; first compound 0.3162 µM) | relative viability (NCI-H1623; first compound 0.01 µM) | relative viability (NCI-H1623; first compound 0.03162 µM) | relative viability (NCI-H1623; first compound 0.3162 µM) | relative viability (A549; first compound 0.01 µM) | relative viability (A549; first compound 0.03162 µM) | relative viability (A549; first compound 0.3162 µM) | relative viability (NCI-H520; first compound 0.04 µM) | relative viability (NCI-H520; first compound 0.1265 µM) | relative viability (NCI-H520; first compound 0.4 µM) | relative viability (NCI-H520; first compound 1.265 µM) | relative viability (NCI-H520; first compound 4 µM) | relative viability (NCI-H1623; first compound 0.04 µM) | relative viability (NCI-H1623; first compound 0.1265 µM) | relative viability (NCI-H1623; first compound 0.4 µM) | relative viability (NCI-H1623; first compound 4 µM) | relative viability (NCI-H1648; first compound 0.04 µM) | relative viability (NCI-H1648; first compound 0.1265 µM) | relative viability (NCI-H1648; first compound 0.4 µM) | relative viability (NCI-H1648; first compound 1.265 µM) | relative viability (NCI-H1648; first compound 4 µM) | relative viability (A549; first compound 0.04 µM) | relative viability (A549; first compound 0.1265 µM) | relative viability (A549; first compound 0.4 µM) | relative viability (A549; first compound 1.265 µM) | relative viability (A549; first compound 4 µM) |
| --- | --- | --- | --- | --- | --- | --- | --- | --- | --- | --- | --- | --- | --- | --- | --- | --- | --- | --- | --- | --- | --- | --- | --- | --- | --- | --- | --- | --- |
| CC(C)Oc1cc(Nc2nc(N[C@@H](C)c3ccc(F)cn3)ncc2Cl)n[nH]1 [AZ23] + Cc1nc(Nc2ncc(C(=O)Nc3c(C)cccc3Cl)s2)cc(N2CCN(CCO)CC2)n1 [Dasatinib] (partner 0.075 µM) | 0.194 | 0.24 | 0.162 | 0.503 | 0.578 | 0.57 | – | – | – | – | – | – | – | – | – | – | – | – | – | – | – | – | – | – | – | – | – | – |
| CC(C)Oc1cc(Nc2nc(N[C@@H](C)c3ccc(F)cn3)ncc2Cl)n[nH]1 [AZ23] + N=C(N)NC(=N)NCCc1ccccc1 [Phenformin] (partner 250 µM) | 0.508 | 0.643 | 0.23 | 0.54 | 0.618 | 0.61 | 0.181 | 0.227 | 0.176 | – | – | – | – | – | – | – | – | – | – | – | – | – | – | – | – | – | – | – |
| COc1cc(N2CCC(C(N)=O)CC2)ccc1Nc1nc(N)c(Cl)c(Nc2ccccc2S(=O)(=O)C(C)C)n1 [HG-5-88-01] + CCNC(=O)c1noc(-c2cc(C(C)C)c(O)cc2O)c1-c1ccc(CN2CCOCC2)cc1 [Luminespib] (partner 0.01 µM) | – | – | – | – | – | – | – | – | – | 0.186 | 0.225 | 0.197 | 0.202 | 0.247 | 0.539 | 0.619 | 0.529 | 0.47 | – | – | – | – | – | – | – | – | – | – |
| COc1cc(N2CCC(C(N)=O)CC2)ccc1Nc1nc(N)c(Cl)c(Nc2ccccc2S(=O)(=O)C(C)C)n1 [HG-5-88-01] + COc1cccc2cc(-c3nc([C@H]4CC[C@H](C(=O)O)CC4)n4ncnc(N)c34)[nH]c12 [OSI-027] (partner 0.5 µM) | – | – | – | – | – | – | – | – | – | 0.23 | 0.258 | 0.236 | 0.289 | 0.221 | 0.451 | 0.378 | 0.408 | 0.296 | 0.257 | 0.258 | 0.259 | 0.28 | 0.29 | – | – | – | – | – |
| COc1cc(N2CCC(C(N)=O)CC2)ccc1Nc1nc(N)c(Cl)c(Nc2ccccc2S(=O)(=O)C(C)C)n1 [HG-5-88-01] + Cc1cc(Nc2cc(N3CCN(C)CC3)nc(Sc3ccc(NC(=O)C4CC4)cc3)n2)n[nH]1 [Tozasertib] (partner 0.1 µM) | – | – | – | – | – | – | – | – | – | 0.457 | 0.433 | 0.435 | 0.414 | 0.452 | 0.512 | 0.449 | 0.399 | 0.377 | 0.406 | 0.472 | 0.43 | 0.183 | 0.329 | – | – | – | – | – |
| COc1cc(N2CCC(C(N)=O)CC2)ccc1Nc1nc(N)c(Cl)c(Nc2ccccc2S(=O)(=O)C(C)C)n1 [HG-5-88-01] + Cc1nc(Nc2ncc(C(=O)Nc3c(C)cccc3Cl)s2)cc(N2CCN(CCO)CC2)n1 [Dasatinib] (partner 0.075 µM) | – | – | – | – | – | – | – | – | – | 0.201 | 0.176 | 0.184 | 0.162 | 0.2 | 0.533 | 0.532 | 0.498 | 0.486 | – | – | – | – | – | – | – | – | – | – |
| COc1cc(N2CCC(C(N)=O)CC2)ccc1Nc1nc(N)c(Cl)c(Nc2ccccc2S(=O)(=O)C(C)C)n1 [HG-5-88-01] + N=C(N)NC(=N)NCCc1ccccc1 [Phenformin] (partner 250 µM) | – | – | – | – | – | – | – | – | – | 0.441 | 0.67 | 0.57 | 0.431 | 0.492 | 0.651 | 0.618 | 0.561 | 0.524 | – | – | – | – | – | 0.246 | 0.24 | 0.327 | 0.347 | 0.183 |
